From patent US12077503B2, “Substituted cyclic amides and their use as herbicides” (FMC CORPORATION, priority 2015, dated 2024)
Where two headings read alike, the source gives them in different places. Each block holds one molecule with its values, some of them ahead of it.

Experiments:
rice (Oryra sativa) = experiment: Test B flooded paddy test; format: in vivo; conditions: Flood, 250 g ai/ha; for pest or weed control at 250 g/ha: Oryza sativa, read-out: Rice plant response rating
Outline: (§1)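 Rating scale 0–100 (visual, vs untreated controls) after a 13–15 d greenhouse period; application to the flood layer, 3 cm above soil and maintained; plants at 2-leaf stage when treated.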

[1] = tested on: sedge, umbrella (small-flower umbrella sedge, Cyperus difformis); experiment: Test B flooded paddy test; format: in vivo; conditions: Flood, 250 g ai/ha; for pest or weed control at 250 g/ha: Cyperus difformis, read-out: Sedge, Umbrella plant response rating
Outline: as §1

[2] = tested on: ducksalad (Heteranthera limosa); experiment: Test B flooded paddy test; format: in vivo; conditions: Flood, 250 g ai/ha; for pest or weed control at 250 g/ha: Heteranthera limosa, read-out: Ducksalad plant response rating
Outline: as §1

[3] = tested on: barnyardgrass (Echinochloa crus-galli); experiment: Test B flooded paddy test; format: in vivo; conditions: Flood, 250 g ai/ha; for pest or weed control at 250 g/ha: Echinochloa crus-galli, read-out: Barnyardgrass plant response rating
Outline: as §1

[4] = tested on: morningglory (Ipomoea coccinea); experiment: Test E preemergence; format: in vivo; conditions: scale 0 to 100
Excerpt: (§2) Seeds of plant species selected from corn (Zea mays), soybean (Glycine max), velvetleaf (Abutilon theophrasti), lambsquarters (Chenopodium album), poinsettia, wild (wild poinsettia, Euphorbia heterophylla), pigweed, palmer (palmer pigweed, Amaranthus palmeri), waterhemp (common waterhemp, Amaranthus rudis), surinam grass (Brachiaria decumbens), crabgrass, large (large crabgrass, Digitaria sangumnalis), crabgrass, Brazil (Brazilian crabgrass, Digitaria horizontalis), Panicum, fall (fall Panicum, Panicum dichotomiflorum), foxtail, giant (giant foxtail, Setaria faberii), foxtail, green (green foxtail, Setaria viridis), goosegrass (Eleusine indica), johnsongrass (Sorghum halepense), ragweed (common ragweed, Ambrosia elatior), barnyardgrass (Echinochloa crus-galli), sandbur (southern sandbur, Cenchrus echinatus), arrowleaf Sida (Sida rhombifolia), ryegrass, Italian (Italian ryegrass, Lolium multiflorum), dayflower, VA (Virginia dayflower, Commelina virginica), field bindweed (Convolvulus arvensis), morningglory (Ipomoea coccinea), nightshade (eastern black nightshade, Solanum ptycanthum), Kochia (Kochia scoparia), nutsedge, yellow (yellow nutsedge, Cyperus esculentus), horseweed (Conyza canadensis), and beggarticks (hairy beggarticks, Bidens pilosa), were planted into a silt loam soil and treated preemergence with test chemicals formulated in a non-phytotoxic solvent mixture which included a surfactant.
(§3) At the same time, plants selected from these crop and weed species were planted in pots containing Sunshine Redi-Earth planting medium comprising spaghnum peat moss, vermiculite, starter nutrients and dolomitic limestone and treated with postemergence applications of a test chemical formulated in the same manner. Plants ranged in height from 2 to 18 cm (1- to 4-leaf stage) for postemergence treatments. Treated plants and controls were maintained in a greenhouse for 14 to 21 d, after which time all species were compared to controls and visually evaluated. Plant response ratings, summarized in Table E, are based on a scale of 0 to 100 where 0 is no effect and 100 is complete control. A dash (-) response means no test result.

[5] = tested on: pigweed, palmer (palmer pigweed, Amaranthus palmeri); experiment: Test E preemergence; format: in vivo; conditions: scale 0 to 100
Excerpt: as §2, §3

[6] = tested on: nightshade (eastern black nightshade, Solanum ptycanthum); experiment: Test E preemergence; format: in vivo; conditions: scale 0 to 100
Excerpt: as §2, §3

[7] = tested on: Panicum, fall (fall Panicum, Panicum dichotomiflorum); experiment: Test E preemergence; format: in vivo; conditions: scale 0 to 100
Excerpt: as §2, §3

[8] = tested on: ryegrass, Italian (Italian ryegrass, Lolium multiflorum); experiment: Test E preemergence; format: in vivo; conditions: scale 0 to 100
Excerpt: as §2, §3

[9] = tested on: arrowleaf Sida (Sida rhombifolia); experiment: Test E preemergence; format: in vivo; conditions: scale 0 to 100
Excerpt: as §2, §3

[10] = tested on: velvetleaf (Abutilon theophrasti); experiment: Test E preemergence; format: in vivo; conditions: scale 0 to 100
Excerpt: as §2, §3

[11] = tested on: johnsongrass (Sorghum halepense); experiment: Test E preemergence; format: in vivo; conditions: scale 0 to 100
Excerpt: as §2, §3

[12] = tested on: foxtail, green (green foxtail, Setaria viridis); experiment: Test E preemergence; format: in vivo; conditions: scale 0 to 100
Excerpt: as §2, §3

soybean (Glycine max) = experiment: Test E preemergence; format: in vivo; conditions: scale 0 to 100
Excerpt: as §2, §3

[13] = tested on: beggarticks (hairy beggarticks, Bidens pilosa); experiment: Test E preemergence; format: in vivo; conditions: scale 0 to 100
Excerpt: as §2, §3

[14] = tested on: ragweed (common ragweed, Ambrosia elatior); experiment: Test E preemergence; format: in vivo; conditions: scale 0 to 100
Excerpt: as §2, §3

[15] = tested on: lambsquarters (Chenopodium album); experiment: Test E preemergence; format: in vivo; conditions: scale 0 to 100
Excerpt: as §2, §3

[16] = scale of 0 to 100 where 0 is no effect and 100 is complete control
[17] = 0 to 100 scale where 0 is no effect and 100 is complete control
[18] = 0 to 100 scale where 0 is no effect and 100 is complete control, 13 to 15 d

Compound: CN1CC(c2cccc(C=O)c2)C(C(=O)Nc2ccccc2F)C1=O (centres unmarked) [Compound 844]
melting point: 133 to 136 °C
pest or weed control at 250 g/ha (rice (Oryra sativa); [16]): 0%
pest or weed control at 250 g/ha [1, 16]: 0%
pest or weed control at 250 g/ha [2, 16]: 0%
pest or weed control at 250 g/ha [3, 16]: 0%

Compound: C=CCOc1cccc(C2CN(C)C(=O)C2C(=O)Nc2cccc(F)c2F)c1 (centres unmarked) [Compound 933]
melting point: 94 to 97 °C
pest or weed control at 250 g/ha (rice (Oryra sativa); [16]): 0%
pest or weed control at 250 g/ha [1, 16]: 0%
pest or weed control at 250 g/ha [2, 16]: 60%
pest or weed control at 250 g/ha [3, 16]: 60%

Compound: O=C1NCC(c2cccc(I)c2)C1C(=O)Nc1ccccc1F (centres unmarked) [Compound 845]
melting point: 150 to 153 °C
pest or weed control at 250 g/ha (rice (Oryra sativa); [16]): 20%
pest or weed control at 250 g/ha [1, 16]: 0%
pest or weed control at 250 g/ha [2, 16]: 0%
pest or weed control at 250 g/ha [3, 16]: 30%

Compound: CN1C[C@H](c2ccc(C(F)(F)F)cc2)[C@@H](C(=O)Nc2cccc(F)c2F)C1=O [Compound 623, (3S,4S)—N-(2,3-difluorophenyl)-1-methyl-2-oxo-4-[4-(trifluoromethyl)phenyl]-3-pyrrolidinecarboxamide]
Plant response rating: Morningglory ([4]; 31 g ai/ha): 0
Plant response rating: Morningglory ([4]; 62 g ai/ha): 0
Plant response rating: Morningglory ([4]; 125 g ai/ha): 0
Plant response rating: Morningglory ([4]; 250 g ai/ha): 0
Plant response rating: Pigweed, Palmer ([5]; 31 g ai/ha): 75
Plant response rating: Pigweed, Palmer ([5]; 62 g ai/ha): 90
Plant response rating: Pigweed, Palmer ([5]; 125 g ai/ha): 95
Plant response rating: Pigweed, Palmer ([5]; 250 g ai/ha): 95
Plant response rating: Nightshade ([6]; 62 g ai/ha): 35
Plant response rating: Nightshade ([6]; 125 g ai/ha): 70
Plant response rating: Nightshade ([6]; 250 g ai/ha): 70
Plant response rating: Panicum, Fall ([7]; 31 g ai/ha): 90
Plant response rating: Panicum, Fall ([7]; 62 g ai/ha): 90
Plant response rating: Panicum, Fall ([7]; 125 g ai/ha): 90
Plant response rating: Panicum, Fall ([7]; 250 g ai/ha): 90
Plant response rating: Ryegrass, Italian ([8]; 31 g ai/ha): 25
Plant response rating: Ryegrass, Italian ([8]; 62 g ai/ha): 50
Plant response rating: Ryegrass, Italian ([8]; 125 g ai/ha): 60
Plant response rating: Ryegrass, Italian ([8]; 250 g ai/ha): 90
Plant response rating: Arrowleaf Sida ([9]; 31 g ai/ha): 20
Plant response rating: Arrowleaf Sida ([9]; 62 g ai/ha): 80
Plant response rating: Arrowleaf Sida ([9]; 125 g ai/ha): 85
Plant response rating: Arrowleaf Sida ([9]; 250 g ai/ha): 90
Plant response rating: Velvetleaf ([10]; 31 g ai/ha): 0
Plant response rating: Velvetleaf ([10]; 62 g ai/ha): 50
Plant response rating: Velvetleaf ([10]; 125 g ai/ha): 65
Plant response rating: Velvetleaf ([10]; 250 g ai/ha): 65
Plant response rating: Johnsongrass ([11]; 31 g ai/ha): 40
Plant response rating: Johnsongrass ([11]; 62 g ai/ha): 60
Plant response rating: Johnsongrass ([11]; 125 g ai/ha): 85
Plant response rating: Johnsongrass ([11]; 250 g ai/ha): 95
Plant response rating: Foxtail, Green ([12]; 31 g ai/ha): 95
Plant response rating: Foxtail, Green ([12]; 62 g ai/ha): 95
Plant response rating: Foxtail, Green ([12]; 125 g ai/ha): 98
Plant response rating: Foxtail, Green ([12]; 250 g ai/ha): 98
Plant response rating: Soybean (soybean (Glycine max); 31 g ai/ha): 0
Plant response rating: Soybean (soybean (Glycine max); 62 g ai/ha): 0
Plant response rating: Soybean (soybean (Glycine max); 125 g ai/ha): 0
Plant response rating: Soybean (soybean (Glycine max); 250 g ai/ha): 0
Plant response rating: Beggarticks ([13]; 31 g ai/ha): 0
Plant response rating: Beggarticks ([13]; 62 g ai/ha): 0
Plant response rating: Beggarticks ([13]; 125 g ai/ha): 0
Plant response rating: Beggarticks ([13]; 250 g ai/ha): 35
Plant response rating: Ragweed ([14]; 31 g ai/ha): 60
Plant response rating: Ragweed ([14]; 62 g ai/ha): 90
Plant response rating: Ragweed ([14]; 125 g ai/ha): 95
Plant response rating: Ragweed ([14]; 250 g ai/ha): 85
Plant response rating: Lambsquarters ([15]; 31 g ai/ha): 90
Plant response rating: Lambsquarters ([15]; 62 g ai/ha): 90
Plant response rating: Lambsquarters ([15]; 125 g ai/ha): 100
Plant response rating: Lambsquarters ([15]; 250 g ai/ha): 95
Plant response rating, Rice (rice (Oryra sativa); [18]): 0
Plant response rating, Sedge, Umbrella [1, 18]: 0
Plant response rating, Ducksalad [2, 18]: 50
Plant response rating, Barnyardgrass [3, 18]: 40

Continued, in another order:

melting point: 123 to 127.7 °C
Compound: O=C1NC[C@H](c2nccs2)[C@H]1C(=O)Nc1ccccc1F [Compound 1181]
pest or weed control at 250 g/ha (rice (Oryra sativa); [17]): 0%
pest or weed control at 250 g/ha [1, 17]: 0%
pest or weed control at 250 g/ha [2, 17]: 35%
pest or weed control at 250 g/ha [3, 17]: 0%

melting point: 100 to 104 °C
Compound: CSc1ccccc1NC(=O)C1C(=O)NCC1C=C(C)C (centres unmarked) [Compound 1055]
pest or weed control at 250 g/ha (rice (Oryra sativa); [17]): 0%
pest or weed control at 250 g/ha [1, 17]: 0%
pest or weed control at 250 g/ha [2, 17]: 30%
pest or weed control at 250 g/ha [3, 17]: 0%

melting point: 160 to 163 °C
Compound: CN1C[C@H](c2ccc(C(F)(F)F)cc2)[C@@H](C(=O)Nc2cccc(F)c2Br)C1=O [Compound 937]
pest or weed control at 250 g/ha (rice (Oryra sativa); [16]): 0%
pest or weed control at 250 g/ha [1, 16]: 0%
pest or weed control at 250 g/ha [2, 16]: 45%
pest or weed control at 250 g/ha [3, 16]: 0%

melting point: 130 to 134 °C
Compound: CN1CC(c2ccccc2OC(F)(F)C(F)F)C(C(=O)Nc2cccc(F)c2F)C1=O (centres unmarked) [Compound 1056]
pest or weed control at 250 g/ha (rice (Oryra sativa); [17]): 20%
pest or weed control at 250 g/ha [1, 17]: 0%
pest or weed control at 250 g/ha [2, 17]: 0%
pest or weed control at 250 g/ha [3, 17]: 0%

melting point: 159 to 163 °C
Compound: CC(C)=CC1CNC(=O)C1C(=O)Nc1ccccc1S(C)(=O)=O (centres unmarked) [Compound 1057]
pest or weed control at 250 g/ha (rice (Oryra sativa); [17]): 0%
pest or weed control at 250 g/ha [1, 17]: 0%
pest or weed control at 250 g/ha [2, 17]: 85%
pest or weed control at 250 g/ha [3, 17]: 30%
